Reference: paper PMC9785280, “Synthesis, Antiproliferative Evaluation and QSAR Analysis of Novel Halogen- and Amidino-Substituted Benzothiazoles and Benzimidazoles” (International Journal of Molecular Sciences, 2022)

Assays:
[1] = system: HeLa (cervical adenocarcinoma) cells; test: MTT antiproliferative assay, HeLa; format: cell-based; conditions: Homo sapiens, 72 h, mean ± SD of three independent experiments
Experimental: (§1) The growth inhibition activity was assessed according to the slightly modified procedure performed at the National Cancer Institute, Developmental Therapeutics Program.
(§2) Examined compounds were dissolved in DMSO (1 × 10^−2 M). The experiments were carried out on seven human tumor cell lines and two normal cell lines. The following cell lines were used: HeLa (human cervical adenocarcinoma; purchased from ATCC), CaCo-2 (human colorectal adenocarcinoma), HuT78 (T-cell lymphoma), THP-1 (acute monocytic leukemia), SW620 (colorectal adenocarcinoma, metastatic), MDA-MB-231 (human breast adenocarcinoma), HL60 (promyelocytic leukemia cell line), foreskin fibroblast cells (BJ) and MDCK1 (Madine–Darby canine kidney fibroblast like cells). MDCK1 cells were used between 24 and 26 passages.
(§3) Adherent cells were cultured in the Dulbecco’s modified Eagle medium—DMEM (Gibco, EU) supplemented with 10 % heat-inactivated fetal bovine serum (FBS, Gibco, EU), 2 mM glutamine, and 100 U/0.1 mg penicillin/streptomycin. Cells on suspension were cultured in RPMI 1640 (Gibco, EU) medium supplemented with 10 % FBS (Gibco, EU), 2 mM glutamine, 1 mM sodium pyruvate, 10 mM HEPES. Cells were grown in humidified atmosphere under the conditions of 37 °C/5% of CO2 gas in the CO2 incubator (IGO 150 CELLlife^TM, JOUAN, Thermo Fisher Scientific, Waltham, MA, USA). A erythrosin B (Sigma-Aldrich, St. Louis, MO, USA) dye exclusion method was used to assess cell viability before plating.
(§4) Adherent cells (HeLa, CaCo-2, MCF-7 and MDCK-1) were plated in 96-well flat bottom plates (Greiner, Frickenhausen, Austria) at a concentration of 2 × 10^4 cells/mL. Suspension cells (THP-1 and HuT78) were plated in 96-well microtiter plates (Sarstead, Newton, USA) at a concentration of 1 × 10^5 cells/mL. Twenty-four hours later, cells were treated with test agents in […] 10-fold dilutions ([…] to 10^−4 M) and incubated for further 72 h. Working dilutions were freshly prepared on the day of testing. The solvent was also tested for eventual inhibitory activity by adjusting its concentration to be the same as in working concentrations. After 72 h of incubation, the cell growth rate was evaluated by performing the MTT assay, which detects dehydrogenase activity in viable cells. For this purpose, upon completion of the incubation period, growth medium was discarded and 50 μL of MTT was added to each well at a concentration of 5 mg/mL. After four hours of incubation at 37 °C, water insoluble MTT-formazan crystals were dissolved in 150 μL of dimethyl-sulfoxide (DMSO) for adherent cells, and in 10 % SDS with 0.01 M/L HCl for cells grown in suspension. The absorbance (OD, optical density) was measured on a microplate reader (iMark, BIO RAD, Hercules, CA, USA) at 595 nm.
(§5) Percent of life cells was calculated as follows: % = OD (sample)–OD (background)/OD (control)–OD (background) × 100.
(§6) Optical density (OD) of background for adherent cells is the OD of MTT solution and DMSO; OD (background) for suspension cells is OD of the culture medium with MTT and 10% SDS with 0.01 M/L HCl; OD (control) is the OD of the cells growth without tested compounds.
(§7) Calculation of GI50 value curves and QC analysis is performed by using the Excel tools and GraphPadPrism software (La Jolla, CA), v. 5.03. Briefly, individual concentration effect curves are generated by plotting the logarithm of the concentration of tested compounds(X) vs. corresponding percent inhibition values (Y) using least squares fit. The best fit GI50 values are calculated using Log (inhibitor) versus normalized response—Variable slope equation, where Y Ľ 100/(1 ţ 10 ((LogIC50 _ X) * HillSlope)). QC criteria parameters (Z0, S:B, R2, HillSlope) were checked for every GI50 curve.

[2] = system: HuT78 (T-cell lymphoma) cells; test: MTT antiproliferative assay, HuT78; format: cell-based, human; conditions: for IC50: Homo sapiens, HuT78, 72 h, 72 h, MTT, mean ± SD of three independent experiments; for SI (BJ) HuT78: SI = IC50 BJ / IC50 HuT78; for SI (MDCK) HuT78: SI = IC50 MDCK1 / IC50 HuT78
Experimental: as §1, §2, §3, §4, §5, §6, §7

[3] = system: MDCK1 (Madin–Darby canine kidney) cells; test: MTT antiproliferative assay, non-tumor MDCK1 cells; format: cell-based; conditions: Canis lupus familiaris, MDCK1, 72 h, mean ± SD of three independent experiments, normal cells
Experimental: as §1, §2, §3, §4, §5, §6, §7

human fibroblasts (BJ) = test: MTT antiproliferative assay, normal BJ fibroblasts; format: cell-based; conditions: Homo sapiens, Fibroblast, 72 h, MTT, mean ± SD of three independent experiments; normal cells
Experimental: as §1, §2, §3, §4, §5, §6, §7

[4] = system: CaCo-2 (colon adenocarcinoma) cells; test: MTT antiproliferative assay, CaCo-2; format: cell-based, human; conditions: Homo sapiens, Caco-2; 72 h, MTT, mean ± SD of three independent experiments
Experimental: as §1, §2, §3, §4, §5, §6
as §7, with “The best fit GI50 values are calculated using Log (inhibitor) versus normalized response—Variable slope equation, where Y Ľ 100/(1 ţ 10 ((LogIC50 _ X) * HillSlope)).” left out

SMILES	IC50 [1] [µM]	melting point [°C]	IC50 [2] [µM]	SI (BJ) HuT78 [2]	SI (MDCK) HuT78 [2]	IC50 [3] [µM]	IC50 (human fibroblasts (BJ)) [µM]	IC50 [4] [µM]
Fc1cc(-c2nc3ccccc3s2)ccc1OCc1c[nH]nn1 [23b, 2-(3-Fluoro-4-((1H-1,2,3-triazol-4-yl)methoxy)phenyl)benzothiazole]	34.9 ± 14.8	185 to 189	17.1 ± 7.7	2.34	1.6	27.4 ± 4.2	40.5 ± 17.2	56 ± 14.6
COc1cc(-c2nc3ccccc3s2)ccc1OCc1c[nH]nn1 [23c, 2-(3-Methoxy-4-((1H-1,2,3-triazol-4-yl)methoxy)phenyl)benzothiazole]	45.7 ± 16.3	177 to 180	20 ± 8.7	5.0		29.5 ± 7.2	> 100	96.4 ± 13.3
Clc1ccc2nc(-c3ccc(OCc4cn(Cc5ccccc5)nn4)cc3)sc2c1 [24a, 6-Chloro-2-(4-((1-benzyl-1H-1,2,3-triazol-4-yl)methoxy)phenyl)benzothiazole]	> 100	201 to 205	> 100			11.4 ± 14.5	> 100	> 100
Fc1cc(-c2nc3ccc(Cl)cc3s2)ccc1OCc1cn(Cc2ccccc2)nn1 [24b, 6-Chloro-2-(3-fluoro-4-((1-benzyl-1H-1,2,3-triazol-4-yl)methoxy)phenyl)benzothiazole]	> 100	181 to 186	> 100			8.8 ± 8.3	> 100	> 100
COc1cc(-c2nc3ccc(Cl)cc3s2)ccc1OCc1cn(Cc2ccccc2)nn1 [24c, 6-Chloro-2-(3-methoxy-4-((1-benzyl-1H-1,2,3-triazol-4-yl)methoxy)phenyl)benzothiazole]	82.8 ± 32.3	190 to 193	49.6 ± 38	2.0		41.1 ± 17.2	> 100	> 100
Fc1ccc2nc(-c3ccc(OCc4cn(Cc5ccccc5)nn4)cc3)sc2c1 [25a, 6-Fluoro-2-(4-((1-benzyl-1H-1,2,3-triazol-4-yl)methoxy)phenyl)benzothiazole]	> 100	176 to 180	> 100			8.2 ± 5.8	10 ± 0.01	> 100
Fc1ccc2nc(-c3ccc(OCc4cn(Cc5ccccc5)nn4)c(F)c3)sc2c1 [25b, 6-Fluoro-2-(3-fluoro-4-((1-benzyl-1H-1,2,3-triazol-4-yl)methoxy)phenyl)benzothiazole]	> 100	205 to 208	19.7 ± 10.6	5.07	2.6	51.3 ± 4.6	> 100	> 100
COc1cc(-c2nc3ccc(F)cc3s2)ccc1OCc1cn(Cc2ccccc2)nn1 [25c, 6-Fluoro-2-(3-methoxy-4-((1-benzyl-1H-1,2,3-triazol-4-yl)methoxy)phenyl)benzothiazole]	> 100	180 to 183	> 100			22.8 ± 4.9	> 100	77.6 ± 43.3
c1ccc(Cn2cc(COc3ccc(-c4nc5ccccc5s4)cc3)nn2)cc1 [26a, 2-(4-((1-Benzyl-1H-1,2,3-triazol-4-yl)methoxy)phenyl)benzothiazole]	> 100	210 to 214	> 100			36.7 ± 18	> 100	> 100
Fc1cc(-c2nc3ccccc3s2)ccc1OCc1cn(Cc2ccccc2)nn1 [26b, 2-(3-Fluoro-4-((1-benzyl-1H-1,2,3-triazol-4-yl)methoxy)phenyl)benzothiazole]	> 100	198 to 201	> 100			64.8 ± 38.5	> 100	> 100
COc1cc(-c2nc3ccccc3s2)ccc1OCc1cn(Cc2ccccc2)nn1 [26c, 2-(3-Methoxy-4-((1-benzyl-1H-1,2,3-triazol-4-yl)methoxy)phenyl)benzothiazole]	23.3 ± 15.3	170 to 173	23.7 ± 5.2	3.24		8.5 ± 6.4	76.7 ± 27.7	> 100
Cl.O=C(COc1ccc(-c2nc3ccc(C4=NCCN4)cc3s2)cc1)c1ccccc1 [34a, 2-(4-(2-Oxo-2-phenylethoxy)phenyl)-6-(4,5-dihydro-1H-imidazol-2-yl)benzothiazole hydrochloride]	3.4 ± 0.2	> 250	2.2 ± 0.3			2.8 ± 0.3	3.9 ± 0.3	4 ± 0.2
Cl.O=C(COc1ccc(-c2nc3ccc(C4=NCCN4)cc3s2)cc1F)c1ccccc1 [34b, 2-(3-Fluoro-4-(2-oxo-2-phenylethoxy)phenyl)-6-(4,5-dihydro-1H-imidazol-2-yl)benzothiazole hydrochloride]	4.5 ± 4.3	> 240	2.1 ± 0.2			2.2 ± 0.3	11.2 ± 6	7 ± 5.4
COc1cc(-c2nc3ccc(C4=NCCN4)cc3s2)ccc1OCC(=O)c1ccccc1.Cl [34c, 2-(3-Methoxy-4-(2-oxo-2-phenylethoxy)phenyl)-6-(4,5-dihydro-1H-imidazol-2-yl)benzothiazole hydrochloride]	3.1 ± 0.2	> 240	1.8 ± 0.7			2.1 ± 0.3	4 ± 0.1	6.3 ± 3
Cl.c1ccc(COc2ccc(-c3nc4ccc(C5=NCCN5)cc4s3)cc2)nc1 [35a, 2-(4-(Pyridin-2-ylmethoxy)phenyl)-6-(4,5-dihydro-1H-imidazol-2-yl)benzothiazole hydrochloride]	18.9 ± 3.6	> 250	1.4 ± 0.2			2.7 ± 0.3	3.2 ± 0.3	26.7 ± 2.1
COc1cc(-c2nc3ccc(C4=NCCN4)cc3s2)ccc1OCc1ccccn1.Cl [35c, 2-(3-Methoxy-4-(pyridin-2-ylmethoxy)phenyl)-6-(4,5-dihydro-1H-imidazol-2-yl)benzothiazole hydrochloride]	21.8 ± 5.5	219 to 223	6.2 ± 2.7			7.5 ± 3.5	6.7 ± 4.9	18.2 ± 3.3
Cl.Fc1cc(-c2nc3ccc(C4=NCCN4)cc3s2)ccc1OCc1c[nH]nn1 [36b, 2-(3-Fluoro-4-((1H-1,2,3-triazol-4-yl)methoxy)phenyl)-6-(4,5-dihydro-1H-imidazol-2-yl)benzothiazole hydrochloride]	30 ± 1	234 to 237	1.8 ± 0.4		14	25.2 ± 1.3	32.6 ± 3.4	38.3 ± 1.2
